Laboratory results: patent publication US20020165233A1, “Quinoxaline containing medicaments for post exposure prophylaxis of an HIV infection” (priority 1999, published 2002)

Tested on: RT-SHIV
Experiment: Quantitative virus isolation (QVI) from PBMC co-cultured with C8166 and viral RNA PCR of culture supernatant
Type: in vivo, rhesus monkeys
Set-up: key to viral RNA PCR of QVI culture supernatant: +=positive; −=negative
Method: Nine rhesus monkeys (male, 2 years old, 2-3 kg) were seronegative for SIV, Simian T cell Leukemia Virus (STLV), B virus and Type D retroviruses. 15 mg/kg body weight of COMPOUND A was subcutaneously administered into animals twice a day (12 h interval) for 28 d. Animals were divided into three groups. All animals were intravenously administered with 100 TCID50 of RT-SHIV The first group consisted of three animals treated with COMPOUND A from 8 h post exposure for 28 d. The second group of animals was treated with COMPOUND A from 24 h post exposure for 28 d. The third group (control) received the solvent that was used to dissolve COMPOUND A (PEG400:glycerol:water=[…]) from 8 h post exposure for 28 d.
Blood was collected from all the animals either just before or 2 h after the drug administration on 0, 3, 7, 10, 14, 21, 29 d post exposure in order to check the drug concentration, otherwise in intervals of 2 to 8 weeks. Biopsy of inguinal lymph nodes was conducted on 17 d or 18 d and 8 weeks post exposure in two animals per group. Cerebrospinal fluid (CSF) was collected from the animals just before biopsy.
Viral RNA was detected from 7 or 10 d post exposure up to 40 weeks post exposure in all plasma specimen from two animals (FIG. 2). […] While in two animals plasma viral RNA levels persisted around 10^5 copy/ml after a moderate reduction occurred at 4 weeks post exposure, viral RNA levels in one animal declined to about 10^3 copy/ml after 15 weeks post exposure (FIG. 2). The RT-SHIV infection in PIBMC was monitored by quantitative virus isolation (QVI) and quantitative PCR assay of proviral DNA. Serially diluted PBMC were co-cultured with C8166 to determine the minimal PBMC cell number to provoke a productive infection of C8166 cells. The number from the QVI test indicates infectious cells per one million PBMC. QVI results were consistent with plasma viral RNA levels. The numbers indicates the results of QVI. A + or − on the right indicates results of viral RNA PCR assay for the detection of virus in culture supernatant. +=positive, −=negative.

[1] = animal #1, 15 mg/kg s.c. b.i.d. 8h thru 28 d post exp, week 11 post exp.
[2] = animal #3, 15 mg/kg s.c. b.i.d. 24h thru 28 d post exp., week 6 post exp.
[3] = animal #3, 15 mg/kg s.c. b.i.d. 24h thru 28 d post exp., week 8 post exp.
[4] = animal #3, 15 mg/kg s.c. b.i.d. 24h thru 28 d post exp., week 11 post exp.
[5] = animal #4, 15 mg/kg s.c. b.i.d. 24h thru 28 d post exp., week 8 post exp.
[6] = animal #10, 15 mg/kg s.c. b.i.d. 8h thru 28 d post exp, week 6 post exp.
[7] = animal #10, 15 mg/kg s.c. b.i.d. 8h thru 28 d post exp, week 8 post exp.
[8] = animal #10, 15 mg/kg s.c. b.i.d. 8h thru 28 d post exp, week 11 post exp.
[9] = animal #11, 15 mg/kg s.c. b.i.d. 24h thru 28 d post exp., week 8 post exp.
[10] = animal #11, 15 mg/kg s.c. b.i.d. 24h thru 28 d post exp., week 11 post exp.

CC[C@H]1C(=O)Nc2ccc(F)cc2N1C(=O)OC(C)C [Compound A, (3S)-ethyl-6-fluoro-4-isopropyloxycarbonyl-3,4-dihydroquinoxalin-2(1H)-one]
viral RNA PCR of QVI culture supernatant (animal #1, 15 mg/kg s.c. b.i.d. 8h thru 28 d post exp, week 8 post exp.): + | Quantitative virus isolation (QVI) [1]: 4 infectious cells per one million PBMC | viral RNA PCR of QVI culture supernatant [1]: + | viral RNA PCR of QVI culture supernatant (animal #1, 15 mg/kg s.c. b.i.d. 8h thru 28 d post exp, week 15 post exp.): −/− | viral RNA PCR of QVI culture supernatant (animal #3, 15 mg/kg s.c. b.i.d. 24h thru 28 d post exp., week 2 post exp.): −/− | Quantitative virus isolation (QVI) [2]: 16 infectious cells per one million PBMC | viral RNA PCR of QVI culture supernatant [2]: + | Quantitative virus isolation (QVI) [3]: 16 infectious cells per one million PBMC | viral RNA PCR of QVI culture supernatant [3]: + | Quantitative virus isolation (QVI) [4]: 16 infectious cells per one million PBMC | viral RNA PCR of QVI culture supernatant [4]: + | viral RNA PCR of QVI culture supernatant (animal #3, 15 mg/kg s.c. b.i.d. 24h thru 28 d post exp., week 15 post exp.): −/− | viral RNA PCR of QVI culture supernatant (animal #4, 15 mg/kg s.c. b.i.d. 24h thru 28 d post exp., week 2 post exp.): −/− | viral RNA PCR of QVI culture supernatant (animal #4, 15 mg/kg s.c. b.i.d. 24h thru 28 d post exp., week 6 post exp.): −/− | Quantitative virus isolation (QVI) [5]: 1 infectious cells per one million PBMC | viral RNA PCR of QVI culture supernatant [5]: + | viral RNA PCR of QVI culture supernatant (animal #4, 15 mg/kg s.c. b.i.d. 24h thru 28 d post exp., week 11 post exp.): −/− | viral RNA PCR of QVI culture supernatant (animal #4, 15 mg/kg s.c. b.i.d. 24h thru 28 d post exp., week 15 post exp.): −/− | viral RNA PCR of QVI culture supernatant (animal #5, 15 mg/kg s.c. b.i.d. 8h thru 28 d post exp, week 2 post exp.): −/− | viral RNA PCR of QVI culture supernatant (animal #5, 15 mg/kg s.c. b.i.d. 8h thru 28 d post exp, week 6 post exp.): −/− | viral RNA PCR of QVI culture supernatant (animal #5, 15 mg/kg s.c. b.i.d. 8h thru 28 d post exp, week 8 post exp.): −/− | viral RNA PCR of QVI culture supernatant (animal #5, 15 mg/kg s.c. b.i.d. 8h thru 28 d post exp, week 11 post exp.): −/− | viral RNA PCR of QVI culture supernatant (animal #5, 15 mg/kg s.c. b.i.d. 8h thru 28 d post exp, week 15 post exp.): −/− | viral RNA PCR of QVI culture supernatant (animal #10, 15 mg/kg s.c. b.i.d. 8h thru 28 d post exp, week 2 post exp.): −/− | Quantitative virus isolation (QVI) [6]: 1 infectious cells per one million PBMC | viral RNA PCR of QVI culture supernatant [6]: + | Quantitative virus isolation (QVI) [7]: 16 infectious cells per one million PBMC | viral RNA PCR of QVI culture supernatant [7]: + | Quantitative virus isolation (QVI) [8]: 4 infectious cells per one million PBMC | viral RNA PCR of QVI culture supernatant [8]: + | viral RNA PCR of QVI culture supernatant (animal #10, 15 mg/kg s.c. b.i.d. 8h thru 28 d post exp, week 15 post exp.): −/− | viral RNA PCR of QVI culture supernatant (animal #11, 15 mg/kg s.c. b.i.d. 24h thru 28 d post exp., week 2 post exp.): −/− | viral RNA PCR of QVI culture supernatant (animal #11, 15 mg/kg s.c. b.i.d. 24h thru 28 d post exp., week 6 post exp.): −/− | Quantitative virus isolation (QVI) [9]: 4 infectious cells per one million PBMC | viral RNA PCR of QVI culture supernatant [9]: + | Quantitative virus isolation (QVI) [10]: 4 infectious cells per one million PBMC | viral RNA PCR of QVI culture supernatant [10]: + | viral RNA PCR of QVI culture supernatant (animal #11, 15 mg/kg s.c. b.i.d. 24h thru 28 d post exp., week 15 post exp.): −/−
